Usually MIC stands for the lowest concentration found to suppress growth. The low end stands for inhibition by little substance, the high end for a need for much substance.

Data on one molecule can be found in patent US7322965B2, “Infection-resistant medical devices” (priority 2002, dated 2008).

Converted amounts (≈) assume the structure as drawn.

The subject of data set [1] is S. aureus UC-20206. The data set can be described thus: Determination of minimum inhibitory concentration (microdilution). The following applies: Staphylococcus aureus, UC20206, 18 h. It counts as cell-based. (In general: Broth dilution looks for growth in wells or tubes with falling amounts of substance.)
Data set [2] can be described thus: Resistance to thermal decomposition. It counts as physicochemical. The source says:
The medical device can be, for example, a suture, orthopedic appliance, stent, catheter, guidewire, shunt (e.g., hemodialysis shunt or cerebrospinal shunt), prosthesis (e.g., prosthetic heart valve or prosthetic joint), cardiac pacemaker, neuronal stimulator, or vascular graft. The medical device can be made of biomaterials (i.e., biologically-compatible materials known to those skilled in the art, such as metal, polymeric, or ceramic materials). The antimicrobial agent can be incorporated into the medical device according to methods known to those skilled in the art, such as by immersing the medical device in a solution (e.g., an aqueous solution) containing the antimicrobial agent, or, for example, by methods described in one of the following references: U.S. Pat. No. 3,987,797; U.S. Pat. No. 4,563,485; U.S. Pat. No. 4,875,479; U.S. Pat. No. 4,946,870; U.S. Pat. No. 5,306,289; U.S. Pat. No. 5,584,877; U.S. Pat. No. 5,607,685; U.S. Pat. No. 5,788,979; U.S. Pat. No. 6,143,037; U.S. Pat. No. 6,238,687; WO00/56283; and WO 01/28601, the disclosures of which are incorporated herein by reference. The medical device can include a polymeric material, and the polymeric material can be co-extruded with the antibacterial agent. […]

Turning to `CC(=O)NC[C@H]1CN(c2ccc(N3CCOCC3)c(F)c2)C(=O)O1` [Linezolid, (S)-N-[[3-[3-fluoro-4-(4-morpholinyl)phenyl]-2-oxo-5-oxazolidinyl]methyl]acetamide], the MIC in data set [1] was 4 µg/mL (≈ 11.9 µM). In addition, the “temperature up to which resistant to thermal decomposition” value in data set [2] is “at least 121 °C”.
